“And” between values parts separate entries of the source, which are not always exact repeats. Identical values can stand only once.
How the values were obtained:
PSMA (LS174T-PSMA cells) [1] = target: T1, PSMA (LS174T-PSMA cells) (Homo sapiens, UniProt Q04609); test: Binding and internalization assay with 111In-labelled ligands on PSMA-expressing LS174T-PSMA cells; format: cell-based; conditions: for Average binding %, Internalized / Average binding %, Membrane bound / Average binding %, Total: 111In-labelled, 50,000 cpm, 2 h at 37° C., LS174T-PSMA cells
T1 construct: expressed in transfected cells
Procedure: Each labelled ligand (0.01 mL) was dissolved in PBS (0.5 mL) and diluted 1:10:100 in three tubes, resulting in tube 1 1×, tube 2 10× and tube 3 100× dilution. The tubes were measured by a gamma-counter to determine the counts per minute of known ligand concentrations. The calculated amounts of ligand were transferred from tubes 2 into new tubes and filled with binding buffer to total volume 0.5 mL. These solutions are needed for the binding and internalization assay.
Two days before the assay, four six-well plates were plated with 0.3-1.0 million PSMA-expressing LS174T-PSMA cells per well in culture medium (2 mL). On the day of the assay, the cells were washed with PBS. Binding buffer (0.5% BSA in RMPI 1640, 2 mL) and 50,000 counts per minute of radiolabelled PSMA-ligand (0.005 mL) were added from tubes prepared according to calculation with standards. Each ligand was examined in triplicate. The cells were incubated at 37° C. for 2 hours and after this the medium was removed. The cells were washed with ice-cold PBS and cooled to 0° C. After incubating the cells with acid buffer pH 2.6 (0.1M acetic acid, 0.15 M NaCl, 2 mL) for 10 minutes, the membrane-bound ligands were collected in tubes. The cells were washed with ice-cold PBS again and these fractions were collected as control. NaOH was added to the cells (0.1 M, 2 mL) for 10 minutes to lyse the cells and free the internalized ligands. The ^111In-radiocounts per minute of all fractions and standards were measured by a gamma-counter. From this, the ligand-PSMA binding percentages and internalization fraction were quantified.

PSMA (LS174T-PSMA cells) [2] = target: T1, PSMA (LS174T-PSMA cells); test: Competitive binding assay against 111In-labeled PSMA-617 using LS174T-PSMA cells; conditions: on ice 2 h, 111In-labeled PSMA-617 as competitor, unlabeled ligand 0.01-300 nM
Procedure: (§1) IC50: The 50% inhibitory concentration (IC50) of the ligands was determined using LS174T-PSMA cells in a competitive binding assay. The LS174T-PSMA cells were cultured to confluency in 6-wells plates, followed by incubation on ice for 2 h in 1 mL of binding buffer (RPMI/0.5% BSA) with 50,000 cpm of ^111In-labeled PSMA-617 and a series of increasing concentrations (0.01-300 nM) of unlabeled PSMA ligands. After incubation, cells were washed with 2 ml PBS and lysed with 1.5 ml 0.1 M NaOH. Cell lysis was collected from the plate and the cell-associated activity was measured in a gamma-counter and IC50 values were calculated using GraphPad Prism software version 5.03. Lipophilicity: LogD values of all radiolabeled ligands were determined by adding 300,000 cpm (0.6-1.5 pmol) to a mixture of 3 ml PBS (pH 7.4) and 3 ml n-octanol. Tubes were vortexed vigorously for 1 min and centrifuged for 5 min at 201×g. The concentration of radioactivity in a defined volume of each layer was measured in a well-type gamma-counter.

PSMA (LS174T-PSMA cells) [3] = target: T1, PSMA (LS174T-PSMA cells); test: Alternative internalization assay in LS174T-PSMA cells; format: cell-based; conditions: 2 h at 37° C.
Procedure: Alternative internalization assay: binding and internalization characteristics of all ligands were compared using LS174T-PSMA and wildtype LS174T cells, cultured to confluency in 6-wells plates. Cells were incubated with 50,000 counts per minute (cpm) ^111In- or ^99mTc-labeled PSMA ligand (0.1-0.25 pmol/well) in 1 ml binding buffer (RPMI/0.5% BSA) for 2 h at 37° C. Nonspecific binding was determined by co-incubation with 2-(phosphonomethyl) pentane-1,5-dioic acid (2-PMPA, 21.57 µM). Cells were washed with PBS and incubated with acid buffer (0.1 M acetic acid, 154 mM NaCl, pH 2.6) for 10 minutes at 0° C. to retrieve the membrane-bound fraction. After this, the membrane-bound fraction was collected, cells were washed, lysed with 1.5 ml 0.1 M NaOH and cell lysis (intracellular activity) was collected. Membrane-bound activity and intracellular activity fractions were measured in a gamma-counter (2480 WIZARD^2 Automatic Gamma Counter, PerkinElmer) (6,42).

[4] = Lipophilicity, LogD of radiolabeled ligands in PBS (pH 7.4) / n-octanol; format: physicochemical; conditions: radiolabeled ligand
Procedure: as §1

T1 sequence (Q04609 whole entry): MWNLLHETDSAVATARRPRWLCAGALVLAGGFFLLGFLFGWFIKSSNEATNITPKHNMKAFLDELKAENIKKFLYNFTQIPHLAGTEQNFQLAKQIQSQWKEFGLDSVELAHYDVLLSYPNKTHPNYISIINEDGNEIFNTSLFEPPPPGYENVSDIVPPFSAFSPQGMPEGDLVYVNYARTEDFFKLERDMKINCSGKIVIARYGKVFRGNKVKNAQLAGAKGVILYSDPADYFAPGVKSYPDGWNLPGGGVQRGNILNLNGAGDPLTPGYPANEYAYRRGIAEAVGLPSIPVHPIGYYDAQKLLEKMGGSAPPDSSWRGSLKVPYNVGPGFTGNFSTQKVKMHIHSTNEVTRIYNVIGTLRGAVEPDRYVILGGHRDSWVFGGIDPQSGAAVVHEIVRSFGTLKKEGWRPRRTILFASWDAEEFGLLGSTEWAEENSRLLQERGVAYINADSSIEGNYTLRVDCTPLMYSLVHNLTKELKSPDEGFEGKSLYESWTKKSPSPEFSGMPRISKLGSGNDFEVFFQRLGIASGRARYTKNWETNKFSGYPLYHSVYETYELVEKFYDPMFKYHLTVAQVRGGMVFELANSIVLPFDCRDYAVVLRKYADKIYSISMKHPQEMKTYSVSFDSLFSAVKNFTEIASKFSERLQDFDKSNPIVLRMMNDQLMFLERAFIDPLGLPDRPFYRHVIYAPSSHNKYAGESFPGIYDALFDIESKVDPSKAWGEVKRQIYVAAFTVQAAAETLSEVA

| IC50 (PSMA (LS174T-PSMA cells) [2]) [nM] | Internalization Ratio (%) (PSMA (LS174T-PSMA cells) [3]) | LogD [4] | Structure (SMILES) | Average binding %, Internalized (PSMA (LS174T-PSMA cells) [1]) [%] | Average binding %, Membrane bound (PSMA (LS174T-PSMA cells) [1]) [%] | Average binding %, Total (PSMA (LS174T-PSMA cells) [1]) | total binding to PSMA expressing cells relative to PSMA-617 (PSMA (LS174T-PSMA cells) [1]; ratio of total binding percentages) [times] |
| --- | --- | --- | --- | --- | --- | --- | --- |
|  |  |  | O=C(O)CC[C@H](NC(=O)N[C@@H](CCCCNC(=O)[C@H](Cc1ccc2ccccc2c1)NC(=O)c1ccc(CNC(=O)[C@H](CCCCNC(=O)CN2CCN(CC(=O)O)CCN(CC(=O)O)CCN(CC(=O)O)CC2)NC(=O)[C@H](CCC(=O)O)NC(=O)c2ccccc2)cc1)C(=O)O)C(=O)O [Compound K9] | 9.06 | 9.87 | 18.9% and 18.93% | 2.6 |
| 184 | 80.6 +/− 11.6% | −3.2 +/− 0.16 | CC1(C)C(/C=C/C2=C(Oc3ccc(S(=O)(=O)O)cc3)C(=C/C=C3/N(CCCCS(=O)(=O)O)c4ccc(S(=O)(=O)O)cc4C3(C)C)/CCC2)=[N+](CCCCCC(=O)NCCC(=O)N2Cc3ccccc3-c3c(cnn3CCCCC(NC(=O)CN3CCN(CC(=O)O)CCN(CC(=O)O)CCN(CC(=O)O)CC3)C(=O)NCCCC[C@H](NC(=O)[C@H](CCC(=O)O)NC(=O)c3cccnc3)C(=O)NCc3ccc(C(=O)N[C@@H](Cc4ccc5ccccc5c4)C(=O)NCCCC[C@H](NC(=O)N[C@@H](CCC(=O)O)C(=O)O)C(=O)O)cc3)-c3ccccc32)c2ccc(S(=O)(=O)O)cc21 (stereo partly shown) [Compound K13] |  |  |  |  |
| 475 | 61.0 +/− 12.8% | −3.5 +/− 0.01 | CC(=O)SCC(=O)NCC(=O)NCC(=O)NCC(=O)NC(CCCCNC(=O)CCCCC[N+]1=C(C=CC2=C(Oc3ccc(S(=O)(=O)O)cc3)C(=CC=C3N(CCCCS(=O)(=O)O)c4ccc(S(=O)(=O)O)cc4C3(C)C)CCC2)C(C)(C)c2cc(S(=O)(=O)O)ccc21)C(=O)NCCCCC(NC(=O)C(CCC(=O)O)NC(=O)c1cccnc1)C(=O)NCc1ccc(C(=O)NC(Cc2ccc3ccccc3c2)C(=O)NCCCCC(NC(=O)NC(CCC(=O)O)C(=O)O)C(=O)O)cc1 (stereo not shown) [Compound K12] |  |  |  |  |
| 312 | 74.1 +/− 20.3% | −4.4 +/− 0.01 | CC1(C)C(=CC=C2CCCC(C=CC3=[N+](CCCCCC(=O)NCCCCC(NC(=O)CN4CCN(CC(=O)O)CCN(CC(=O)O)CCN(CC(=O)O)CC4)C(=O)NCCCCC(NC(=O)C(CCC(=O)O)NC(=O)c4cccnc4)C(=O)NCc4ccc(C(=O)NC(Cc5ccc6ccccc6c5)C(=O)NCCCCC(NC(=O)NC(CCC(=O)O)C(=O)O)C(=O)O)cc4)c4ccc(S(=O)(=O)O)cc4C3(C)C)=C2Oc2ccc(S(=O)(=O)O)cc2)N(CCCCS(=O)(=O)O)c2ccc(S(=O)(=O)O)cc21 (stereo not shown) [Compound K11] |  |  |  |  |

| Structure (SMILES) | IC50 (PSMA (LS174T-PSMA cells) [2]) [nM] | Internalization Ratio (%) (PSMA (LS174T-PSMA cells) [3]) | LogD [4] | Average binding %, Internalized (PSMA (LS174T-PSMA cells) [1]) [%] | Average binding %, Membrane bound (PSMA (LS174T-PSMA cells) [1]) [%] | Average binding %, Total (PSMA (LS174T-PSMA cells) [1]) | total binding to PSMA expressing cells relative to PSMA-617 (PSMA (LS174T-PSMA cells) [1]; ratio of total binding percentages) [times] |
| --- | --- | --- | --- | --- | --- | --- | --- |
| O=C(O)CC[C@H](NC(=O)N[C@@H](CCCCNC(=O)[C@H](Cc1ccc2ccccc2c1)NC(=O)[C@H]1CC[C@H](CNC(=O)CN2CCN(CC(=O)O)CCN(CC(=O)O)CCN(CC(=O)O)CC2)CC1)C(=O)O)C(=O)O [PSMA-617, reference compound] | 8.5 | 48.4 +/− 12.4% | −4.1 +/− 0.01 | 3.39 | 3.80 | 7.19% |  |

Source: US20250332290A1, “PSMA-TARGETING LIGANDS FOR MULTIMODAL APPLICATIONS” (STICHTING RADBOUD UNIVERSITAIR MEDISCH CENTRUM, priority 2021, published 2025)
